Measurements from ChEMBL document CHEMBL5512605, “Targeted regulated cell death with small molecule compounds in colorectal cancer: Current perspectives of targeted therapy and molecular mechanisms” (Eur J Med Chem, 2024).

Assays:
HT-29 [1] = assay: Cytotoxicity against human HT-29 cells assessed as inhibition of cell viability by MTT assay; format: functional
SW480 [2] = assay: Cytotoxicity against human SW480 cells assessed as inhibition of cell viability by MTT assay; format: functional
HT-29 [3] = assay: Antiproliferative activity against human HT-29 cells incubated for 48 hrs by CCK-8 method; format: functional, cell-based; details: HT-29, 48 h
SW-620 [4] = assay: Antiproliferative activity against human SW620 cells incubated for 48 hrs by CCK-8 method; format: functional, cell-based; details: SW-620, 48 h
SW-620 [5] = assay: Antiproliferative activity against human SW620 cells incubated for 72 hrs by CCK-8 method; format: functional
P2X purinoceptor 7 = P2X purinoceptor 7 (Homo sapiens, UniProt Q99572); assay: Antagonist activity at P2X7R (unknown origin)
HCT-116 [6] = assay: Antiproliferative activity against human HCT-116 cells incubated for 72 hrs by CCK-8 method; format: functional
SW480 [7] = assay: Antiproliferative activity against human SW480 cells assessed as inhibition of cell growth by CellTiter 96 Aqueous One Solution Cell Proliferation Assay; format: functional, cell-based
SW-620 [8] = assay: Antiproliferative activity against human SW620 cells assessed as inhibition of cell growth by CellTiter 96 Aqueous One Solution Cell Proliferation Assay; format: functional, cell-based
LoVo [9] = assay: Antiproliferative activity against human LoVo cells assessed as inhibition of cell growth by CellTiter 96 Aqueous One Solution Cell Proliferation Assay; format: functional, cell-based
[10] = target: T1, Signal transducer and activator of transcription 3 (Homo sapiens, UniProt P40763); assay: Inhibition of STAT3 (unknown origin)
HCT-116 [11] = assay: Cytotoxicity against human HCT-116 cells measured after 72 hrs by WST-1 assay; format: functional, cell-based; details: HCT-116, 72 h
RKO [12] = assay: Cytotoxicity against human RKO cells assessed as reduction in cell viability by MTT assay; format: functional
SW480 [13] = assay: Cytotoxicity against human SW480 cells assessed as reduction in cell viability by MTT assay; format: functional
HT-29 [14] = assay: Cytotoxicity against human HT-29 cells assessed as reduction in cell viability by MTT assay; format: functional
[15] = target: T1, Signal transducer and activator of transcription 3; assay: Binding affinity to GFP tagged STAT3 (unknown origin) assessed as dissociation constant by microscale thermophoresis analysis
HCT-116 [16] = assay: Cytotoxicity against human HCT-116 cells assessed as reduction in cell viability by MTT assay; format: functional
DLD-1 [17] = assay: Cytotoxicity against human DLD-1 cells; format: functional
Phospholipase D1 = Phospholipase D1 (Homo sapiens, UniProt Q13393); assay: Inhibition of PLD1 (unknown origin)
Phospholipase D2 = Phospholipase D2 (Homo sapiens, UniProt O14939); assay: Inhibition of PLD2 (unknown origin)
[18] = target: T1, Signal transducer and activator of transcription 3; assay: Binding affinity to N-terminal his tagged recombinant human STAT3 expressed in insect cells assessed as dissociation constant by biolayer interferometry assay; design: species or system Insect cell
RKO [19] = assay: Cytotoxicity against human RKO cells assessed as inhibition of cell proliferation measured after 24 hrs by MTT assay; format: functional, cell-based
HCT-116 [20] = assay: Cytotoxicity against human HCT-116 cells assessed as inhibition of cell proliferation measured after 24 hrs by MTT assay; format: functional, cell-based; details: HCT-116, 24 h
RKO [21] = assay: Antiproliferative activity against human RKO cells assessed as inhibition of cell growth; format: functional, cell-based
LoVo [22] = assay: Antiproliferative activity against human LoVo cells assessed as inhibition of cell viability by CellTiter-Glo Luminescent Assay; format: functional
HT-29 [23] = assay: Antiproliferative activity against human HT-29 cells assessed as inhibition of cell viability by CellTiter-Glo Luminescent Assay; format: functional
SW-620 [24] = assay: Antiproliferative activity against human SW-620 cells assessed as inhibition of cell viability by CellTiter-Glo Luminescent Assay; format: functional
HCT-116 [25] = assay: Antiproliferative activity against human HCT-116 cells assessed as inhibition of cell viability by CellTiter-Glo Luminescent Assay; format: functional
DLD-1 [26] = assay: Antiproliferative activity against human DLD-1 cells assessed as inhibition of cell viability by CellTiter-Glo Luminescent Assay; format: functional
SW480 [27] = assay: Antiproliferative activity against human SW480 cells assessed as reduction in cell viability; format: functional
SW-620 [28] = assay: Antiproliferative activity against human SW620 cells assessed as reduction in cell viability; format: functional
RKO [29] = assay: Antiproliferative activity against human RKO cells assessed as inhibition of cell viability measured upto 96 hrs by CCK-8 method; format: functional
SW48 = assay: Cytotoxicity against human SW48 cells measured after 72 hrs; format: functional, cell-based; details: SW48, 72 h
HCT-116 [30] = assay: Cytotoxicity against human HCT-116 cells measured after 72 hrs; format: functional, cell-based; details: HCT-116, 72 h
HT-29 [31] = assay: Cytotoxicity against human HT-29 cells measured after 72 hrs; format: functional, cell-based; details: HT-29, 72 h
HCT-116 [32] = assay: Cytotoxicity against p53 null human HCT-116 cells measured after 72 hrs; format: functional, cell-based; details: HCT-116, 72 h
RKO [33] = assay: Cytotoxicity against human RKO cells measured after 72 hrs; format: functional, cell-based
HT-29 [34] = assay: Antiproliferative activity against human HT-29 cells assessed as inhibition of cell growth incubated for 24 hrs by cell-titer glo assay; format: functional
MC-38 = assay: Antiproliferative activity against mouse MC38 cells assessed as inhibition of cell growth incubated for 24 hrs by cell-titer glo assay; format: functional
HCT-116 [35] = assay: Antiproliferative activity against human HCT-116 cells assessed as inhibition of cell growth incubated for 24 hrs by cell-titer glo assay; format: functional
HT-29 [36] = assay: Antiproliferative activity against human HT-29 cells; format: functional
SW-620 [37] = assay: Cytotoxicity against human SW620 cells; format: functional, cell-based
HCT-116 [38] = assay: Cytotoxicity against human HCT-116 cells; format: functional, cell-based
RKO [39] = assay: Antiproliferative activity against human RKO cells by CCK-8 method; format: functional
LoVo [40] = assay: Antiproliferative activity against human LoVo cells by CCK-8 method; format: functional
[41] = Inhibition of NEMO/IKKbeta (unknown origin); design: species or system Homo sapiens
HCT-15 = assay: Antiproliferative activity against human HCT-15 cells by CCK-8 method; format: functional
SW-620 [42] = assay: Antiproliferative activity against human SW620 cells by CCK-8 method; format: functional
HCT-116 [43] = assay: Antiproliferative activity against human HCT-116 cells by CCK-8 method; format: functional
SW-620 [44] = assay: Antiproliferative activity against human SW620 cells assessed as reduction in cell viability measured after 24 hrs by CCK-8 method; format: functional, cell-based; details: SW-620, 24 h
HCT-116 [45] = assay: Antiproliferative activity against human HCT-116 cells assessed as reduction in cell viability measured after 24 hrs by CCK-8 method; format: functional, cell-based; details: HCT-116, 24 h
HCT-116 [46] = assay: Cytotoxicity against human HCT-116 cells incubated for 24 hrs by MTT assay; format: functional, cell-based; details: HCT-116, 24 h
HCT-116 [47] = assay: Antiproliferative activity in human HCT-116 cells measured after 12 to 24 hrs by MTT assay; format: functional, cell-based
HT-29 [48] = assay: Cytotoxicity against human HT-29 cells incubated for 24 hrs by MTT assay; format: functional, cell-based; details: HT-29, 24 h
SW-620 [49] = assay: Antiproliferative activity in human SW620 cells measured after 12 to 24 hrs by MTT assay; format: functional, cell-based

T1 sequence (P40763 whole entry): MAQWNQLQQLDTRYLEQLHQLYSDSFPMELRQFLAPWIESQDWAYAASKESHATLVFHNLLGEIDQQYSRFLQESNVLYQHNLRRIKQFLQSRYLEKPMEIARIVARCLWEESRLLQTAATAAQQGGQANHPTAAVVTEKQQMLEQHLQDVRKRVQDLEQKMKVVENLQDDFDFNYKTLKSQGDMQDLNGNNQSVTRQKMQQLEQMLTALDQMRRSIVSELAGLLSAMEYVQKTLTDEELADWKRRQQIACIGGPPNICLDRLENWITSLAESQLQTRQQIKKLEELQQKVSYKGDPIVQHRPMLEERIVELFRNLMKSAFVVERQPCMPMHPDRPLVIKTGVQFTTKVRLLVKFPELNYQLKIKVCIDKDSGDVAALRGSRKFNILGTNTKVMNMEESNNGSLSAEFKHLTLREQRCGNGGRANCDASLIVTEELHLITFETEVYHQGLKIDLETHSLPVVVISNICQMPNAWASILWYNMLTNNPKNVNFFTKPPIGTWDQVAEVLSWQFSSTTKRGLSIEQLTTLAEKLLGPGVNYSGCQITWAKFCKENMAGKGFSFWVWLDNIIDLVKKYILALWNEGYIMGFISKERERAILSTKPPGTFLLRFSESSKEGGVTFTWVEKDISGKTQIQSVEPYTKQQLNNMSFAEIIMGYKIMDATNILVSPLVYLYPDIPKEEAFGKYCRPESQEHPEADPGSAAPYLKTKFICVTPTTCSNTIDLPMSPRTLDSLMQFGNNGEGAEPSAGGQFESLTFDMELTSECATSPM
Chain of Phospholipase D1 (Q13393 whole entry): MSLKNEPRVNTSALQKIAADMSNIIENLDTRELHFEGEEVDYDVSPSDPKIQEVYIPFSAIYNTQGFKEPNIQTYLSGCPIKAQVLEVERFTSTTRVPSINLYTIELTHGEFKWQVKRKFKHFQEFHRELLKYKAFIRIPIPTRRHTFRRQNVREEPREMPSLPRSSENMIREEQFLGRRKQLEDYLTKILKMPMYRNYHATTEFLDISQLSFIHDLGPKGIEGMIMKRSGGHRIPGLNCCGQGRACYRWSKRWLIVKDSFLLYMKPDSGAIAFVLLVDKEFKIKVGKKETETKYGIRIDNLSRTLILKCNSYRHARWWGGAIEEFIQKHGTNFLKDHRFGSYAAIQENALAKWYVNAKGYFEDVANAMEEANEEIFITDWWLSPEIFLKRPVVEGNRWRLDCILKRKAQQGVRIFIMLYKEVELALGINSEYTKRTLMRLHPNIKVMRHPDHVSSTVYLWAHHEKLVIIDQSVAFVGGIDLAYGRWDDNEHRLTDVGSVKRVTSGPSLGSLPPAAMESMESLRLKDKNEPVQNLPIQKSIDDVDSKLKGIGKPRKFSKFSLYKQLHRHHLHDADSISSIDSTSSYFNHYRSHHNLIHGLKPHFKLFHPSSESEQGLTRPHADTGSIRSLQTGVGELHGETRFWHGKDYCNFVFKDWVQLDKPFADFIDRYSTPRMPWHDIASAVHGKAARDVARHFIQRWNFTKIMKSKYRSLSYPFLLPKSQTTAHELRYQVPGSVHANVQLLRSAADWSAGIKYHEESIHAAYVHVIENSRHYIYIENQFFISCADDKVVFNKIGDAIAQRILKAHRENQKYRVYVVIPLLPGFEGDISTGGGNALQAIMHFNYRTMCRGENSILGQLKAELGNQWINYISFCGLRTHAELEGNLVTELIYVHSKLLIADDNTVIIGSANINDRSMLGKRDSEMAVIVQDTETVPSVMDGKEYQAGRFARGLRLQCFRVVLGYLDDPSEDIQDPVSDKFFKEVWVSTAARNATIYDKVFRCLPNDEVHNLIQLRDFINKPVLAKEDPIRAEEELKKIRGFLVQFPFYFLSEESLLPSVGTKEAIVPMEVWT
Chain of Phospholipase D2 (O14939 whole entry): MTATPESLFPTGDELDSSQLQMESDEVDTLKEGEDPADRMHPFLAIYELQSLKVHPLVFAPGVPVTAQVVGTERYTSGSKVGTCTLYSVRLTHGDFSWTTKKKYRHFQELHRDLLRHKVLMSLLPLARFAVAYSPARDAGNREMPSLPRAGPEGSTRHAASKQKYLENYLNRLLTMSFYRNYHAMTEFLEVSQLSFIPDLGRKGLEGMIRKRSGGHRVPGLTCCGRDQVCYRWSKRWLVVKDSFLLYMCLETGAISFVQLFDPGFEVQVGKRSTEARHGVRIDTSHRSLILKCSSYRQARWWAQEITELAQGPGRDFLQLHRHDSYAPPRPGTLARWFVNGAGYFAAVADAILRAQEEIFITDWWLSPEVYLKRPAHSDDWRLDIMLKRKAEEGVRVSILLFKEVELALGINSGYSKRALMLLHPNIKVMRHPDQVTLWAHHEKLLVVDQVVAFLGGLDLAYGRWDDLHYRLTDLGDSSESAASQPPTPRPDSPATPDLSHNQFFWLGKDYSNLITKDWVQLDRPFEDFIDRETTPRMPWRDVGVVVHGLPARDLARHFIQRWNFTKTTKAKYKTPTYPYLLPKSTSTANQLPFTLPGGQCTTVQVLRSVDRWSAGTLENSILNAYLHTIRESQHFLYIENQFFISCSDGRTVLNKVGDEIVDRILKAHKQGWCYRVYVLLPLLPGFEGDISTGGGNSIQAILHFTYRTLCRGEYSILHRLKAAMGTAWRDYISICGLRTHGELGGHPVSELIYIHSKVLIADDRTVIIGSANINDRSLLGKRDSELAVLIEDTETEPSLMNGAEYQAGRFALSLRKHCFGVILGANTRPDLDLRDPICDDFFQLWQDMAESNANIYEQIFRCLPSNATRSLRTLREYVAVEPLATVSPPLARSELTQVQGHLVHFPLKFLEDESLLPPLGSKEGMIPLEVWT
Chain of P2X purinoceptor 7 (Q99572 whole entry): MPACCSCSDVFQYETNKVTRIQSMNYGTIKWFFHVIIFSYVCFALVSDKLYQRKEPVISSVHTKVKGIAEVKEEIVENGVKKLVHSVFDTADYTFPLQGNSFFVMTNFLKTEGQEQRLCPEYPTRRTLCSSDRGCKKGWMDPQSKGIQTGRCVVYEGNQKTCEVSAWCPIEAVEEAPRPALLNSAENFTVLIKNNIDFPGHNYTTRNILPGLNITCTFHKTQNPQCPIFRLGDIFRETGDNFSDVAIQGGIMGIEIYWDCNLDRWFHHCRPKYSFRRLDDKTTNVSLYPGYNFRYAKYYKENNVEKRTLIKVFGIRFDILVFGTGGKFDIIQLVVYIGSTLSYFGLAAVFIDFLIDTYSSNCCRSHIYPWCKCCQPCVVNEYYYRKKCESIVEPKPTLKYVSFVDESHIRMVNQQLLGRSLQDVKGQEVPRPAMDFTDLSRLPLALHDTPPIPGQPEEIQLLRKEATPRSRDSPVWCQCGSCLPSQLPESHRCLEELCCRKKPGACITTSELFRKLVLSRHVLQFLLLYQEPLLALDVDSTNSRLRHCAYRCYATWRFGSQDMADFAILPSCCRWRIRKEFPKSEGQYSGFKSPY

CC[C@@]1(O)C(=O)OCc2c1cc1n(c2=O)Cc2cc3cc4c(cc3nc2-1)OCO4
IC (HT-29 [1]): 0 nM | IC (SW480 [2]): 0 nM

CC(C)c1onc(-c2c(Cl)cccc2Cl)c1COc1ccc(/C=C/c2cccc(C(=O)O)c2)c(Cl)c1
IC50 (HT-29 [3]): 13.8 µM | IC50 (SW-620 [4]): 7.6 µM

Clc1cccc(-c2nnnn2Cc2cccnc2)c1Cl
IC (SW-620 [5]): 10 µM | IC50 (P2X purinoceptor 7): 0.13 µM | IC (HCT-116 [6]): 10 µM

CC(C)=CCc1cc(-c2coc3cc(O)c(CC=C(C)C)c(O)c3c2=O)cc(O)c1O
IC50 (SW480 [7]): 6.97 µM | IC50 (SW-620 [8]): 7.33 µM | IC50 (LoVo [9]): 7.05 µM

COC(=O)[C@@]12OC[C@]34[C@H]([C@@H](O)[C@@H]1O)[C@@]1(C)CC(=O)C(O)=C(C)[C@@H]1C[C@H]3OC(=O)[C@H](OC(=O)/C=C(\C)C(C)(C)OC(C)=O)[C@@H]24
IC50 [10]: 2.4 pM | IC50 (HCT-116 [11]): 18.7 µM

O=C1C(Nc2ccccc2N2CCNCC2)=CC2=NS(=O)(=O)c3cccc1c32
IC (RKO [12]): 3 µM | IC (SW480 [13]): 3 µM | IC (HT-29 [14]): 3 µM | Kd [15]: 3.3 µM | IC (HCT-116 [16]): 3 µM

CC(=O)c1ccc2[nH]c(C(=O)Nc3cc(C(F)(F)F)cc(C(F)(F)F)c3)cc2c1
IC (DLD-1 [17]): 1 µM | IC50 (Phospholipase D1): 0.325 µM | IC50 (Phospholipase D2): 0.0151 µM

Cc1ccc(COc2ccc3c(c2)C(=O)C(=O)C2=C3OC(C)C2)cc1 (stereo not given)
Kd [18]: 6.6 µM | IC50 (RKO [19]): 3.78 µM | IC50 (HCT-116 [20]): 4.07 µM

COc1cc(-c2[o+]c3cc(O)cc(O[C@@H]4O[C@H](CO)[C@@H](O)[C@H](O)[C@H]4O)c3cc2O[C@@H]2O[C@H](CO[C@@H]3O[C@@H](C)[C@H](OC(=O)/C=C/c4ccc(O)cc4)C[C@H]3O)[C@@H](O)[C@H](O)[C@H]2O)cc(O)c1O
IC50 (RKO [21]): 172 µM

C[C@@H]1CN(CC(=O)N2CC(C)(C)c3nc(CO)c(Cc4ccc(F)cc4)cc32)[C@@H](CN2CCOC[C@H]2C)CN1 [ASTX-660]
IC (LoVo [22]): 0.5 nM | IC (HT-29 [23]): 0.5 nM | IC (SW-620 [24]): 0.5 nM | IC (HCT-116 [25]): 0.5 nM | IC (DLD-1 [26]): 0.5 nM

C[C@H]1O[C@@H](O[C@H]2[C@@H](O)C[C@H](O[C@H]3[C@@H](O)C[C@H](O[C@H]4CC[C@@]5(C)[C@H](CC[C@@H]6[C@@H]5CC[C@]5(C)[C@@H](C7=CC(=O)OC7)CC[C@]65O)C4)O[C@@H]3C)O[C@@H]2C)C[C@H](O)[C@@H]1O [DIGITOXIN]
IC (SW480 [27]): 200 nM | IC (SW-620 [28]): 200 nM

CCN(CC)C(=S)SSC(=S)N(CC)CC [DISULFIRAM]
IC (RKO [29]): 0.1 µM

O=C(O)CCCCC1CCSS1 (stereo not drawn) [LIPOIC ACID, ALPHA]
IC50 (SW48): 266 µM | IC50 (HCT-116 [30]): 266 µM | IC50 (HT-29 [31]): 266 µM | IC50 (HCT-116 [32]): 890 µM | IC50 (RKO [33]): 266 µM

O=C(NC1CCN(CCCCC2(C(=O)NCC(F)(F)F)c3ccccc3-c3ccccc32)CC1)c1ccccc1-c1ccc(C(F)(F)F)cc1 [LOMITAPIDE]
IC (HT-29 [34]): 10 µM | IC (MC-38): 10 µM | IC (HCT-116 [35]): 10 µM

CC(C)[C@@H]1C[C@@H](O)[C@H]2[C@@]1(C)CC[C@@]1(C)[C@H]3C(=CC[C@]21C)[C@@]1(C)CC[C@H](O)C(C)(C)[C@@H]1C[C@@H]3O [RUBIARBONOL B]
IC (HT-29 [36]): 10 µM | IC (SW-620 [37]): 10 µM | IC (HCT-116 [38]): 10 µM

CC(C)=CC[C@@H](O)C1=CC(=O)c2c(O)ccc(O)c2C1=O [SHIKONIN]
IC (RKO [39]): 0.5 µM | IC (LoVo [40]): 0.5 µM | IC50 [41]: 0.17 µM | IC (HCT-15): 0.5 µM | IC (SW-620 [42]): 0.5 µM | IC (HCT-116 [43]): 0.5 µM

CCC(C)/C=C(\C)[C@H]1C(C)=C[C@@]2(C)C[C@@H](C)CC[C@@H]2[C@H]1C(=O)C1=C/C(=C/c2ccc(O)cc2)NC1=O (stereo not given in full) [TALAROCONVOLUTIN A]
IC50 (SW-620 [44]): 5.82 µM | IC50 (HCT-116 [45]): 9.23 µM

C=C[C@@]12COC(=O)C(=C)[C@@H]1[C@H]1OC(=O)C(=C)[C@@H]1[C@@H](OC(=O)C(=C)CO)C2 [VERNODALIN]
IC50 (HCT-116 [46]): 3.17 µM | IC50 (HCT-116 [47]): 316 µM | IC50 (HT-29 [48]): 7.17 µM | IC50 (SW-620 [49]): 355 µM
